Columns and labels:
[1] = system: NK cells; assay: IFNγ release (ELISA) by pre-treated NK cells after H2O2 exposure; assay type: cell-based, human
Experimental: (§1) Lymphocytes were pre-treated for 18 h with Auranofin (AUF, with the concentration 1 μg/mL for NK cells and 0.5 μg/mL for TIL, if not indicated differently), DL-Sulforaphane (SUL) or Dimethyl Fumarate (DMF) (all Sigma-Aldrich) at indicated concentrations.
(§2) For Nrf2 inhibition, NK cells were treated with 50 μM ML-385 (Sigma-Aldrich) in parallel. For H2O2 treatment, lymphocyte cells were washed and resuspended to 1×10^6 cells/mL in medium and exposed to indicated H2O2 (Sigma-Aldrich) concentration for 1 h at 37° C. Cells were washed with medium and then used for further experiments. For monocyte experiments, autologous NK cell-monocytes or TIL-monocytes were used. NK cells/TIL were isolated and pre-treated with 0.5 μg/mL AUF, as described above, and co-cultured with unstimulated at the ratio, 1:2 M:NK, or stimulated monocytes at the ratio, 1:1 M:NK, if not indicated otherwise. Stimulated monocytes were activated with 100 ng/ml PMA for 1 min, washed and added at indicated ratio, the number of NK cell/TIL was kept constant. As control, H2O2 was used at indicated concentration. […]
For cytokine release assay, NK cells and TIL were cultured with indicated tumour cells at the effector target ratio 4:1 (E:T) for 24 h in U-bottom plates. IFNγ secretion was measured using human IFN-γ ELISA development kit (Mabtech) following the manufacturer's instructions.

[2] = system: NK cells; assay: Viability of pre-treated NK cells after H2O2 treatment (flow cytometry); assay type: cell-based, human; conditions: alive NK cells 4 h after H2O2 treatment, vs untreated NK cells
Experimental: as §1, §2
All antibodies (see Table 1) and FACS reagents were used according to manufactures recommendation, if not stated otherwise. […] Samples were fixed with 2% PFA (Thermo scientific) for 15 min before acquired on a NovoCyte (ACEA Biosciences) and analysed using FlowJo Software (TreeStar).

[3] = system: NK cells; assay: Intracellular ROS levels in NK cells (CellROX, flow cytometry); assay type: cell-based, human
Experimental: For Nrf2 inhibition, NK cells were treated with 50 μM ML-385 (Sigma-Aldrich) in parallel. For H2O2 treatment, lymphocyte cells were washed and resuspended to 1×10^6 cells/mL in medium and exposed to indicated H2O2 (Sigma-Aldrich) concentration for 1 h at 37° C. Cells were washed with medium and then used for further experiments. For monocyte experiments, autologous NK cell-monocytes or TIL-monocytes were used. NK cells/TIL were isolated and pre-treated with 0.5 μg/mL AUF, as described above, and co-cultured with unstimulated at the ratio, 1:2 M:NK, or stimulated monocytes at the ratio, 1:1 M:NK, if not indicated otherwise. Stimulated monocytes were activated with 100 ng/ml PMA for 1 min, washed and added at indicated ratio, the number of NK cell/TIL was kept constant. As control, H2O2 was used at indicated concentration. Cells were co-cultured for 2 h and then effector cells were stained for intracellular ROS (see flow cytometry) or used as effector cells in Cr^51 release assay (E:T ratio 10:1).
For detection of intracellular ROS levels, for NK cells CellROX™ Deep Red Reagent (Invitrogen) were used. Briefly, NK cells were stained with 2.5 μM CellROX solution in RPMI for 30 min at 37° C. and then stained for flow cytometry with anti-CD56 and anti-CD3 (both Biolegend).

[4] = system: NK cells; assay: Phenotype analysis of NK cell surface markers (flow cytometry); assay type: cell-based, human
Experimental: All antibodies (see Table 1) and FACS reagents were used according to manufactures recommendation, if not stated otherwise. All antibodies had been titrated for optimal signal-to-noise ratio and all staining's were performed in PBS supplemented with 1% FBS. All staining's contained a live/dead marker. Samples were fixed with 2% PFA (Thermo scientific) for 15 min before acquired on a NovoCyte (ACEA Biosciences) and analysed using FlowJo Software (TreeStar).
For evaluating CD16 expression, NK cells were treated as described above. After H2O2 treatment, NK cells were incubated for 2 h in RPMI 2% AB serum, stained with anti-CD3, anti-CD56 and anti-CD16 and analyzed.

[5] = system: ANRU TIL; assay: 3D killing assay: ANRU TIL on autologous tumour spheroids (Caspase 3/7, live cell imaging); assay type: cell-based, human; conditions: 48 h co-culture, vs controls
Experimental: 5000 ANRU tumour cells were seeded per well in Ultra-Low Attachment 96-well plates (Corning Costar) in culture medium containing 2% Matrigel (Corning) for 3 days. 1×10^4AUF pre-treated TIL (see above), and spheroids were co-cultured and monitored for 48 h with the IncuCyte live cell imaging system (Essen Bioscience) in the presence of CellEvent™ Caspase 3/7 Green detection agent (Invitrogen).

[6] = target: T1, Nrf2 (Homo sapiens, UniProt Q16236); conditions: presumably via inhibition of TrxR (Saei et al., 2020); cited from earlier work
T1 sequence (Q16236 1-605): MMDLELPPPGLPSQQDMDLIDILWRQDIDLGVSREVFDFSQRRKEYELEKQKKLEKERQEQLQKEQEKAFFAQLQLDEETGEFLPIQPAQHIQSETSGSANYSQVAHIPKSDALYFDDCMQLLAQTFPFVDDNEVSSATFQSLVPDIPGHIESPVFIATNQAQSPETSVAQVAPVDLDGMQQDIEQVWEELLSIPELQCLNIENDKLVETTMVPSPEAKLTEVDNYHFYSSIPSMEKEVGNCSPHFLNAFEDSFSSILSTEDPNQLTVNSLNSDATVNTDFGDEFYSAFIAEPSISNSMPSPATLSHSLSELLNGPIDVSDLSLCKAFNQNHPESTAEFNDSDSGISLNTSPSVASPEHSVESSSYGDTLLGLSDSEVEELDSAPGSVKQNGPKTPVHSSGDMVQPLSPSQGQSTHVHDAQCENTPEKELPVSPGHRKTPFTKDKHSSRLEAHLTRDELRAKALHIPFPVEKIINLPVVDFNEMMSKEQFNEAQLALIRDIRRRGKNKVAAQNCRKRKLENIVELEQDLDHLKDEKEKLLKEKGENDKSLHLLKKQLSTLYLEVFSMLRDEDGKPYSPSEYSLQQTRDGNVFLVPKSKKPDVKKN

CC(=O)OC[C@H]1O[C@@H]([S-])[C@H](OC(C)=O)[C@@H](OC(C)=O)[C@@H]1OC(C)=O.CCP(CC)CC.[Au+] [AUF, Auranofin]
Difference between 18 h and 24 h pre-treatment or 30 min pulse followed by 17.5 h incubation ([1]; NK cells, IFNγ release): no difference | Cytokine release (IFNγ) capacity of NK cells following exposure to H2O2 ([1]; vs untreated NK cells): improved | Viability of NK cells following exposure to H2O2 [2]: improved viability | Intracellular fluorescence of the ROS indicator in NK cells vs controls ([3]; 72 h after AUF removal): no differences | Intracellular fluorescence of the ROS indicator in NK cells ([3]; H2O2 challenge 0-48 h after AUF removal): significantly lower intracellular fluorescence of the ROS indicator | Intracellular ROS levels in NK cells and TIL after H2O2 treatment ([3]; up to 72 h after compound removal): decreased intracellular ROS levels | Intracellular ROS levels in NK cells ([3]; without addition of H2O2): significantly reduced intracellular ROS levels | Differences in NK cell surface markers with and without AUF pre-treatment ([4]; DNAM-1, granzyme B, perforin, CD57, CD69, NKG2A, NKG2D, NKp40, NKp46): few differences | Frequency of NK cells expressing CD16 after exposure to H2O2 ([4]; untreated compared to AUF pre-treated NK cells): significant decrease in frequency of untreated NK cells expressing CD16 | NKp30 expression on NK cells ([4]; upon exposure to H2O2): increased expression | DNAM-1 and NKp46 on NK cells ([4]; with exposure to H2O2): reduced frequency of positive NK cells and/or reduced cell surface levels | DNAM-1, CD69 and NKG2D on NK cells ([4]; without exposure to H2O2): reduced frequency of positive NK cells and/or reduced cell surface levels | Capacity of ANRU TIL to induce apoptosis in spheroid tumour cells (Caspase 3/7) [5]: significantly increased capacity to induce apoptosis | Activation of Nrf2 [6]: strong activator of Nfr2

From US20240277767A1, “METHODS AND USES” (PROLEUKOCYTE AB, priority 2021, published 2024)
